Data taken from paper PMC5374409, “D11-Mediated Inhibition of Protein Kinase CK2 Impairs HIF-1α-Mediated Signaling in Human Glioblastoma Cells” (Pharmaceuticals, 2017).

Target: T1, protein kinase CK2 (CK2α) (Homo sapiens, UniProt P68400)
T1 construct: gene CSNK2A1
Experiment: radioactive kinase assay with recombinant CK2 and synthetic peptide, varied ATP, Michaelis-Menten re-plots
Format: biochemical

T1 sequence (P68400 1-335): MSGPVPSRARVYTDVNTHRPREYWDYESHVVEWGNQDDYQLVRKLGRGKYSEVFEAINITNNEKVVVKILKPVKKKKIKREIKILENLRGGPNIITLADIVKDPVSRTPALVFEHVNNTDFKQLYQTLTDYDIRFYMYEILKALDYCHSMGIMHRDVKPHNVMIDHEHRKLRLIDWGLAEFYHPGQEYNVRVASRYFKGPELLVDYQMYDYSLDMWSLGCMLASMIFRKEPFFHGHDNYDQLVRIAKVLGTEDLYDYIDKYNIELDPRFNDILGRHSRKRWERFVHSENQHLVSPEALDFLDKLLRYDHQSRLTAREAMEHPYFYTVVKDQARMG
T1 sequence (P67870 2-215 partner): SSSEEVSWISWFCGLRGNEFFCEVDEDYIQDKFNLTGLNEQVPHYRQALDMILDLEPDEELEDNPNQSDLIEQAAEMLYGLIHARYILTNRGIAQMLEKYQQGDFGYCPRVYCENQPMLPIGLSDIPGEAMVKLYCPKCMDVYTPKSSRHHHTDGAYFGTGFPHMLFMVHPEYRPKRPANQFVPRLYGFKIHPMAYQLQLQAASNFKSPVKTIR

Ki: 7.7 nM
SMILES: COc1ccc(/N=C/c2c(O)ccc3c2oc2cc(Cl)c(O)c(Cl)c23)cc1 [D11, 1,3-dichloro-6-[(E)-((4-methoxyphenyl)imino)methyl]dibenzo(b,d)furan-2,7-diol]
